In paper PMC9779727, “Identification of Novel Artemisinin Hybrids Induce Apoptosis and Ferroptosis in MCF-7 Cells” (International Journal of Molecular Sciences, 2022):

Tests used:
MCF-7 cells [1] = assay: Annexin V-FITC/PI apoptosis assay (flow cytometry); assay type: cell-based, human; conditions: 48 h
Experimental: To investigate whether hybrid A8 exerts an antitumor effect on MCF-7 cells by inducing apoptosis, an annexin V-FITC/PI binding assay was performed. MCF-7 cells were treated with vehicle or various concentrations (2.5, 5 and 10 μM) of hybrid A8 for 48 h and were then stained with FITC-annexin V and propidium iodide (PI). The percentages of apoptotic MCF-7 cells were determined by flow cytometry. A8-induced apoptosis in a dose-dependent manner. The percentages of total apoptotic cells (Q1-UR + Q1-LR) were 17.99% (2.5 μM), 35.98% (5 μM) and 48.65% (10 μM). […] In addition, obvious changes in cell morphology were also observed.
Cells apoptosis was assessed using Annexin V/PI staining assay. MCF-7 cells were seeded into 6-well plates for 24 h and then treated with compound A8 at various concentrations (0, 2.5, 5 and 10 μM) for 48 h. Then, cells were collected, washed with 500 μL annexin-binding buffer and stained with 5 μL annexin V-FITC and 5 μL PI for 15 min at 25 °C. After that, the samples were analyzed by flow cytometry (Beckman Coulter cytoFLEX, Brea, CA, USA).

CYP2D6 = molecular target: T1, CYP2D6 (Homo sapiens, UniProt P10635); assay: CYPs inhibition assay, CYP2D6; assay type: in vitro ADME; conditions: human liver microsomes
T1 construct: from tissue; host or cells: human liver microsomes
T1 sequence (P10635 whole entry): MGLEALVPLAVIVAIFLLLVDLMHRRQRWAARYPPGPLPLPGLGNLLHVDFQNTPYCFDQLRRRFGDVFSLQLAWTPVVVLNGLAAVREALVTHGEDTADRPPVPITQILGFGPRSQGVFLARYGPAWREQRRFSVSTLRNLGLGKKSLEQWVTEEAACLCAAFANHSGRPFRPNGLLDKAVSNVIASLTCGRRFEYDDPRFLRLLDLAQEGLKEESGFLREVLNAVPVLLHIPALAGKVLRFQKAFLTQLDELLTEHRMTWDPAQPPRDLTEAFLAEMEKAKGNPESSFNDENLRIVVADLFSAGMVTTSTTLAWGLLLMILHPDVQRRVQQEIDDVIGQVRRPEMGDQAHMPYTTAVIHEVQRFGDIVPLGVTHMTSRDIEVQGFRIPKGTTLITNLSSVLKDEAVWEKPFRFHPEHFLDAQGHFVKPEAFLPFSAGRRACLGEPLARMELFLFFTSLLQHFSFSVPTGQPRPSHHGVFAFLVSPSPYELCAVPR
Experimental: Finally, we evaluated the interaction between the hybrid A8 and five major metabolic enzymes (CYP1A2, CYP2C9, CYP2C19, CYP2D6 and CYP3A4) in the human body. […] It is also one of the directions for our further transformation and optimization.
Cytochrome P450 inhibition was evaluated in human liver microsomes (0.253 mg/mL) using five […] (CYP1A2, α-Naphthoflavone; CYP2C9, Sulfaphenazole; CYP2C19, Benzylnirvanol; CYP2D6, Quinidine; and CYP3A4, Ketoconazole.) in the presence of compound A8 (10 μM). After preincubation for 10 min at 37 °C, an NADPH-regenerating system was added. After the mixed system was incubated for 15 min at 37 °C, the reaction was stopped by adding 400 μL of cold stop solution (200 ng/mL tolbutamide and 200 ng/mL labetalol in acetonitrile). Then, the mixture was centrifuged, and the supernatant was analyzed by LC-MS/MS.

[2] = system: breast cancer MCF-7 cells; assay: MTT antiproliferation assay, MCF-7; assay type: cell-based, human; conditions: 48 h, means ± SD, n = 3
From the text: The target hybrids A1–A15 were screened for their antiproliferation activities against five human cancer cell lines (lung cancer A549 cells, breast cancer MCF-7 and MDA-MB-231 cells, colon cancer HCT116 cells and ovarian cancer SK-OV-3 cells) in vitro by the standard MTT method, and 5-fluorouracil (5-FU) and ART were coassayed as controls. […] Therefore, the most promising hybrid, A8, was chosen for further exploration of the preliminary mechanism of MCF-7 cell antiproliferation.
Cytotoxicity of test compounds against five different tumor cell lines were evaluated using an MTT assay in vitro. Cells were seeded into 96-well plates at a density of 5 × 10^4 cells per well and stabilized at 37 °C with 5% CO2 for 24 h. Compounds A1–A15, ART and 5-FU were added to each well at various concentrations and then the cells were incubated for 48 h. The MTT solution (100 μL 0.5 mg/mL^−1) was added to each well, and the cells were incubated for another 4 h. Then, 150 μL DMSO was added to each well and the absorbance of samples was measured at 492 nm. The IC50 values were calculated according to Logit method after getting the inhibitory rate.

Bax = assay: Western blotting, Bax expression; assay type: cell-based, human; conditions: MCF-7, 0, 2.5, 5 and 10 μM, 48 h, GAPDH internal control
Experimental: Based on the JC-1 staining results, we further analyzed the expression of proteins related to apoptosis using a Western blotting assay with GAPDH as an internal control. […] Then, an excess of cytochrome C can enhance caspase-3 activation to stimulate apoptosis.
MCF-7 cells were seeded at a density of 4 × 10^5 cells per well and treated with various concentrations of compound A8 (0, 2.5, 5 and 10 μM) for 48 h. After this, cells were collected and washed twice with ice-cold DPBS. The pellets were resuspended in a total protein extraction buffer (20 mM HEPES, 350 mM NaCl, 20% glycerol, 1% NP-40, 1 mM MgCl2, 0.5 mM EDTA, 0.1 mM EGTA, 0.1 mM DTT, 0.1 mM PMSF) containing a protease inhibitor cocktail and incubated on ice for 30 min with intermittent mixing. The protein concentration was measured using the Bradford reagent (Bio-Rad Laboratories Inc., Hercules, CA, USA). An equal amount (20 μg) of protein was loaded on 10% polyacrylamide gels and transferred to a nitrocellulose membrane. After blocking with 5% skimmed milk, the membrane was incubated at 4 °C overnight with specific primary antibodies. The membrane was washed and incubated at room temperature for 1 h with secondary antibodies conjugated with horseradish peroxidase (HRP). Finally, the immunoblot was developed for visualization using a chemiluminescence kit. […]

MCF-7 cells [3] = assay: Cell colony formation assay; assay type: cell-based, human; conditions: 12 d
Experimental: We chose a cell colony formation assay to determine the antiproliferative effect of the compound more intuitively.
MCF-7 cells were seeded into 6-well plates at 37 °C with 5% CO2 for 24 h and then treated with compound A8 at various concentrations (0, 2.5, 5 and 10 μM), ART (10 μM) and 5-FU (10 μM) for 12 d. Then, cells were stained with Giemsa and clones number were counted directly with naked eyes.

MCF-7 cells [4] = assay: GSH level detection; assay type: cell-based, human
From the text: We also determined the effect of A8 on the expression of GSH and MDA (lipid peroxidation).
Lipid peroxidation assay kit (Beyotime, Shanghai, China) was used to detect malonaldehyde (MDA), together with GSH level assay, present in samples, as per the manufacturer’s instruction with slight modifications.

CC1CCC2C(C)C(OC(=O)CCC(=O)NCc3nnc(Nc4ccc(F)cc4F)o3)OC3OC4(C)CCC1C32OO4 (stereo not drawn) [A8]
percentage of total apoptotic cells (Q1-UR + Q1-LR) (MCF-7 cells [1]; MCF-7, 2.5 μM): 17.99% | percentage of total apoptotic cells (Q1-UR + Q1-LR) (MCF-7 cells [1]; MCF-7, 5 μM): 35.98% | percentage of total apoptotic cells (Q1-UR + Q1-LR) (MCF-7 cells [1]; MCF-7, 10 μM): 48.65% | Inhibition at 10 μM (%) CYP2D6 (CYP2D6): 0.1% | IC50 [2]: 4.07 ± 0.05 µM | expression of Bax (in words) (Bax): upregulated | cell colony number (in words) (MCF-7 cells [3]; MCF-7, 0, 2.5, 5 and 10 μM): decreased in a dose-dependent manner | antiproliferative effect in colony formation compared with controls (in words) (MCF-7 cells [3]; MCF-7, same administration concentration (10 μM)): better than that of 5-FU and ART | GSH level (in words) (MCF-7 cells [4]): decreased significantly
